# Tested on: MV-4-11 cells
# Experiment: Gene expression microarray analysis (Affymetrix PrimeView) and GSEA
# Assay type: cell-based, human
# Design: RFU PODN (11730768_x_at) / Fold change /veh PODN (11730768_x_at) / RFU LINC00158 (11744669_a_at) / Fold change /veh LINC00158 (11744669_a_at) / RFU DUSP10 (11751237_a_at) / Fold change /veh DUSP10 (11751237_a_at) / RFU ID3 (11757404_x_at) / Fold change /veh ID3 (11757404_x_at) / RFU PLEKHG5 (11737974_s_at) / Fold change /veh PLEKHG5 (11737974_s_at) / RFU LRRC4B (11730491_at) / Fold change /veh LRRC4B (11730491_at) / RFU GIMAP4 (11747438_a_at) / Fold change /veh GIMAP4 (11747438_a_at) / RFU KRT8 (11758183_x_at) / Fold change /veh KRT8 (11758183_x_at) / RFU CNN1 (11734310_a_at) / Fold change /veh CNN1 (11734310_a_at) / RFU VPS37D (11726825_at) / Fold change /veh VPS37D (11726825_at) / RFU C10orf10 (11716522_x_at) / Fold change /veh C10orf10 (11716522_x_at) / RFU KIR2DL2 /// KIR2DL4 /// KIR2DL5A /// KIR2DL5B /// KIR2DS1 /// KIR2DS2 /// KIR2DS3 /// KIR2DS4 /// KIR3DL3 /// KIR3DL3 /// KIR3DS1 (11738374_at) / Fold change /veh KIR2DL2 /// KIR2DL4 /// KIR2DL5A /// KIR2DL5B /// KIR2DS1 /// KIR2DS2 /// KIR2DS3 /// KIR2DS4 /// KIR3DL3 /// KIR3DL3 /// KIR3DS1 (11738374_at) / RFU C1QL1 (11718748_at) / Fold change /veh C1QL1 (11718748_at) / RFU TMPRSS4 (11747572_a_at) / Fold change /veh TMPRSS4 (11747572_a_at) / RFU HAMP (11756126_x_at) / Fold change /veh HAMP (11756126_x_at) / RFU RNFT2 (11725882_a_at) / Fold change /veh RNFT2 (11725882_a_at) / RFU NR4A2 (11747474_a_at) / Fold change /veh NR4A2 (11747474_a_at) / RFU ABCC12 (11746883_a_at) / Fold change /veh ABCC12 (11746883_a_at) / RFU TMEM136 (11760407_x_at) / Fold change /veh TMEM136 (11760407_x_at) / RFU CLDN22 /// WWC2 (11732394_at) / Fold change /veh CLDN22 /// WWC2 (11732394_at) / RFU HLA-DPB1 (11760878_x_at) / Fold change /veh HLA-DPB1 (11760878_x_at) / RFU SPINT1 (11716480_a_at) / Fold change /veh SPINT1 (11716480_a_at) / RFU GAP43 (11754022_s_at) / Fold change /veh GAP43 (11754022_s_at) / RFU A4GNT (11735810_at) / Fold change /veh A4GNT (11735810_at) / RFU PRB3 (11715151_x_at) / Fold change /veh PRB3 (11715151_x_at) / RFU TUBB4B (11761932_at) / Fold change /veh TUBB4B (11761932_at) / RFU CAPN14 (11732068_a_at) / Fold change /veh CAPN14 (11732068_a_at) / RFU TMCC2 (11721928_a_at) / Fold change /veh TMCC2 (11721928_a_at) / RFU IRGQ (11745062_a_at) / Fold change /veh IRGQ (11745062_a_at) / RFU FAM174B (11720279_a_at) / Fold change /veh FAM174B (11720279_a_at) / RFU TMPRSS4 (11748680_a_at) / Fold change /veh TMPRSS4 (11748680_a_at) / RFU FAM212B (11763350_a_at) / Fold change /veh FAM212B (11763350_a_at) / RFU PLEKHG5 (11743358_a_at) / Fold change /veh PLEKHG5 (11743358_a_at) / RFU ZSCAN30 (11745921_a_at) / Fold change /veh ZSCAN30 (11745921_a_at) / RFU CMKLR1 (11741424_a_at) / Fold change /veh CMKLR1 (11741424_a_at) / RFU LOC101060620 /// MAPK8IP1 (11723275_at) / Fold change /veh LOC101060620 /// MAPK8IP1 (11723275_at) / RFU SPTSSB (11747773_x_at) / Fold change /veh SPTSSB (11747773_x_at) / RFU PRSS12 (11739890_at) / Fold change /veh PRSS12 (11739890_at) / RFU BIN1 (11741810_x_at) / Fold change /veh BIN1 (11741810_x_at) / RFU WNT11 (11732464_a_at) / Fold change /veh WNT11 (11732464_a_at) / RFU C10orf10 (11716521_a_at) / Fold change /veh C10orf10 (11716521_a_at) / RFU C5orf56 (11738089_at) / Fold change /veh C5orf56 (11738089_at) / RFU CYB561 (11721691_x_at) / Fold change /veh CYB561 (11721691_x_at) / RFU ANKRD19P (11752326_a_at) / Fold change /veh ANKRD19P (11752326_a_at) / RFU OR2T12 /// OR2T33 /// OR2T8 (11738714_s_at) / Fold change /veh OR2T12 /// OR2T33 /// OR2T8 (11738714_s_at) / RFU VCAN (11748164_a_at) / Fold change /veh VCAN (11748164_a_at) / RFU JSRP1 (11732532_at) / Fold change /veh JSRP1 (11732532_at) / RFU KRTAP10-11 (11738290_x_at) / Fold change /veh KRTAP10-11 (11738290_x_at) / RFU MYO3A (11730013_a_at) / Fold change /veh MYO3A (11730013_a_at) / RFU EBF3 (11725865_a_at) / Fold change /veh EBF3 (11725865_a_at) / RFU CAMK2N1 (11719241_x_at) / Fold change /veh CAMK2N1 (11719241_x_at) / RFU C5orf56 (11738088_a_at) / Fold change /veh C5orf56 (11738088_a_at) / RFU OLFML3 (11715873_a_at) / Fold change /veh OLFML3 (11715873_a_at) / RFU LOC100653217 /// NTM (11731650_a_at) / Fold change /veh LOC100653217 /// NTM (11731650_a_at) / RFU MAPK11 (11762145_a_at) / Fold change /veh MAPK11 (11762145_a_at) / RFU FIZ1 (11724087_x_at) / Fold change /veh FIZ1 (11724087_x_at) / RFU OASL (11726364_x_at) / Fold change /veh OASL (11726364_x_at) / RFU SOX15 (11748057_x_at) / Fold change /veh SOX15 (11748057_x_at) / RFU CD79A (11719716_a_at) / Fold change /veh CD79A (11719716_a_at) / RFU HIST1H1D (11736915_at) / Fold change /veh HIST1H1D (11736915_at) / RFU CASKIN2 (11723855_a_at) / Fold change /veh CASKIN2 (11723855_a_at) / RFU LOC730098 (11760151_x_at) / Fold change /veh LOC730098 (11760151_x_at) / RFU OR4N2 (11742367_at) / Fold change /veh OR4N2 (11742367_at) / RFU PRRT2 (11749266_a_at) / Fold change /veh PRRT2 (11749266_a_at) / RFU SNX32 (11753110_a_at) / Fold change /veh SNX32 (11753110_a_at) / RFU CDHR5 (11726645_a_at) / Fold change /veh CDHR5 (11726645_a_at) / RFU RCAN1 (11760418_a_at) / Fold change /veh RCAN1 (11760418_a_at) / RFU FAM167A (11723789_a_at) / Fold change /veh FAM167A (11723789_a_at) / RFU FAM26E (11764081_at) / Fold change /veh FAM26E (11764081_at) / RFU ISYNA1 (11749810_s_at) / Fold change /veh ISYNA1 (11749810_s_at) / RFU ACY1 (11761880_at) / Fold change /veh ACY1 (11761880_at) / RFU 11764098_at / Fold change /veh 11764098_at / RFU SAMD14 (11745864_x_at) / Fold change /veh SAMD14 (11745864_x_at) / RFU NPB (11741838_a_at) / Fold change /veh NPB (11741838_a_at) / RFU TMPRSS6 (11731388_a_at) / Fold change /veh TMPRSS6 (11731388_a_at) / RFU KRTAP10-2 (11738614_at) / Fold change /veh KRTAP10-2 (11738614_at) / RFU ARHGAP8 /// PRR5-ARHGAP8 (11727945_x_at) / Fold change /veh ARHGAP8 /// PRR5-ARHGAP8 (11727945_x_at) / RFU KRTAP5-7 /// NADSYN1 (11734609_at) / Fold change /veh KRTAP5-7 /// NADSYN1 (11734609_at) / RFU RASL12 (11751679_a_at) / Fold change /veh RASL12 (11751679_a_at) / RFU CDKN2B (11736163_a_at) / Fold change /veh CDKN2B (11736163_a_at) / RFU PRF1 (11729649_at) / Fold change /veh PRF1 (11729649_at) / RFU, ZNF638 /// ZNF638-IT1 / Fold change vs veh, ZNF638 /// ZNF638-IT1 / RFU, PANK3 / Fold change vs veh, PANK3 / RFU, SH3YL1 / Fold change vs veh, SH3YL1 / RFU, ZEB2 / Fold change vs veh, ZEB2 / RFU, NRIP1 / Fold change vs veh, NRIP1 / RFU, PTTG1IP / Fold change vs veh, PTTG1IP / RFU, CAPN2 / Fold change vs veh, CAPN2 / RFU, MED14 / Fold change vs veh, MED14 / RFU, SNORA58 / Fold change vs veh, SNORA58 / RFU, C1orf63 / Fold change vs veh, C1orf63 / RFU, LRRFIP1 / Fold change vs veh, LRRFIP1 / RFU, NDUFAF7 / Fold change vs veh, NDUFAF7 / RFU, SLC12A2 / Fold change vs veh, SLC12A2 / RFU, IBTK / Fold change vs veh, IBTK / RFU, ESF1 / Fold change vs veh, ESF1 / Fold change vs veh, TMEM50B / RFU, TAOK1 / Fold change vs veh, TAOK1 / RFU, ACBD3 / Fold change vs veh, ACBD3 / RFU, TMA16 / Fold change vs veh, TMA16 / RFU, RWDD3 / Fold change vs veh, RWDD3 / RFU, BCAT1 / Fold change vs veh, BCAT1 / RFU, EDEM3 / Fold change vs veh, EDEM3 / RFU, TMEM33 / Fold change vs veh, TMEM33 / RFU, WDR75 / Fold change vs veh, WDR75 / RFU, AHCTF1 / Fold change vs veh, AHCTF1 / RFU, TFRC / Fold change vs veh, TFRC / RFU, ZDHHC17 / Fold change vs veh, ZDHHC17 / RFU, NOM1 / Fold change vs veh, NOM1 / RFU, ARL8B / Fold change vs veh, ARL8B / RFU, ZBTB11 / Fold change vs veh, ZBTB11 / RFU, TAMM41 / Fold change vs veh, TAMM41 / RFU, KIAA1704 /// LOC100996395 / Fold change vs veh, KIAA1704 /// LOC100996395 / RFU, ING1 / Fold change vs veh, ING1 / RFU, TRMT61B / Fold change vs veh, TRMT61B / RFU, FUBP3 / Fold change vs veh, FUBP3 / RFU, TP53 / Fold change vs veh, TP53 / RFU, TNKS2 / Fold change vs veh, TNKS2 / RFU, ZFP14 / Fold change vs veh, ZFP14 / RFU, ACTR2 / Fold change vs veh, ACTR2 / RFU, PPP3R1 / Fold change vs veh, PPP3R1 / RFU, PIK3R1 / Fold change vs veh, PIK3R1 / RFU, HNRNPA1 / Fold change vs veh, HNRNPA1 / RFU, RNF170 / Fold change vs veh, RNF170 / RFU, ZNF28 / Fold change vs veh, ZNF28 / RFU, RNGTT / Fold change vs veh, RNGTT / RFU, OGT / Fold change vs veh, OGT / RFU, BRD1 / Fold change vs veh, BRD1 / RFU, MARS / Fold change vs veh, MARS / RFU, ZNF655 / Fold change vs veh, ZNF655 / RFU, FAHD1 / Fold change vs veh, FAHD1 / RFU, BDP1 / Fold change vs veh, BDP1 / RFU, LRRCC1 / Fold change vs veh, LRRCC1 / RFU, ARID1A / Fold change vs veh, ARID1A / RFU, ZNF146 / Fold change vs veh, ZNF146 / RFU, ZNF330 / Fold change vs veh, ZNF330 / RFU, GPN3 / Fold change vs veh, GPN3 / RFU, C9orf123 / Fold change vs veh, C9orf123 / RFU, N4BP2L2 / Fold change vs veh, N4BP2L2 / RFU, ARFIP1 / Fold change vs veh, ARFIP1 / RFU, FAM179B / Fold change vs veh, FAM179B / RFU, BCL10 / Fold change vs veh, BCL10 / RFU, UHRF1BP1L / Fold change vs veh, UHRF1BP1L / RFU, BET1 / Fold change vs veh, BET1 / RFU, CNOT2 / Fold change vs veh, CNOT2 / RFU, ZNF268 / Fold change vs veh, ZNF268 / Fold change vs veh, ZNF507 / RFU, DGCR2 / Fold change vs veh, DGCR2 / RFU, WDSUB1 / Fold change vs veh, WDSUB1 / Fold change vs veh, HSP90B1 /// MIR3652 / RFU, ADSS / Fold change vs veh, ADSS / RFU, GK / Fold change vs veh, GK / RFU, ZNF148 / Fold change vs veh, ZNF148 / RFU, TAF9 / Fold change vs veh, TAF9 / RFU, SLC1A5 / Fold change vs veh, SLC1A5 / RFU, SLMO2 / Fold change vs veh, SLMO2 / RFU, ABCC4 / Fold change vs veh, ABCC4 / RFU, LOC101060439 /// RAP1B / Fold change vs veh, LOC101060439 /// RAP1B / RFU, RFX7 / Fold change vs veh, RFX7 / RFU, GTPBP10 / Fold change vs veh, GTPBP10 / RFU, CNEP1R1 / Fold change vs veh, CNEP1R1 / RFU, BIVM-ERCC5 /// ERCC5 / Fold change vs veh, BIVM-ERCC5 /// ERCC5 / RFU, ILF3 / Fold change vs veh, ILF3 / RFU 11762660_at / Fold change /veh 11762660_at / RFU VCAN (11757783_s_at) / Fold change /veh VCAN (11757783_s_at) / RFU DDX43 (11728927_at) / Fold change /veh DDX43 (11728927_at) / RFU KRT8 (11758188_x_at) / Fold change /veh KRT8 (11758188_x_at) / RFU NKD1 (11759106_at) / Fold change /veh NKD1 (11759106_at) / RFU SRD5A1 (11742802_a_at) / Fold change /veh SRD5A1 (11742802_a_at) / RFU TPSAB1 /// TPSB2 (11721975_s_at) / Fold change /veh TPSAB1 /// TPSB2 (11721975_s_at) / RFU GSTM3 (11746129_a_at) / Fold change /veh GSTM3 (11746129_a_at) / RFU IL23R (11737362_x_at) / Fold change /veh IL23R (11737362_x_at) / RFU TMEM51 (11727254_a_at) / Fold change /veh TMEM51 (11727254_a_at) / RFU PIWIL2 (11732686_x_at) / Fold change /veh PIWIL2 (11732686_x_at) / RFU ORM1 (11744905_x_at) / Fold change /veh ORM1 (11744905_x_at) / RFU CCDC152 (11743942_at) / Fold change /veh CCDC152 (11743942_at) / RFU ECM1 (11717891_a_at) / Fold change /veh ECM1 (11717891_a_at) / RFU IL23R (11748794_a_at) / Fold change /veh IL23R (11748794_a_at) / RFU TNFAIP8L3 (11732012_x_at) / Fold change /veh TNFAIP8L3 (11732012_x_at) / RFU MBOAT4 (11741988_at) / Fold change /veh MBOAT4 (11741988_at) / RFU 11764193_at / Fold change /veh 11764193_at / RFU TMEM53 (11763286_at) / Fold change /veh TMEM53 (11763286_at) / RFU MAGEB2 (11727129_at) / Fold change /veh MAGEB2 (11727129_at) / RFU TMEM200A (11744735_a_at) / Fold change /veh TMEM200A (11744735_a_at) / RFU CCDC152 (11751479_a_at) / Fold change /veh CCDC152 (11751479_a_at) / RFU FAM211A (11726209_a_at) / Fold change /veh FAM211A (11726209_a_at) / RFU RGS16 (11746705_a_at) / Fold change /veh RGS16 (11746705_a_at) / RFU VCAN (11755009_s_at) / Fold change /veh VCAN (11755009_s_at) / RFU RHOB (11743442_s_at) / Fold change /veh RHOB (11743442_s_at) / RFU RGS16 (11720943_a_at) / Fold change /veh RGS16 (11720943_a_at) / RFU RGS16 (11720944_at) / Fold change /veh RGS16 (11720944_at) / RFU, VPS4B / Fold change vs veh, VPS4B / RFU, CREB1 / Fold change vs veh, CREB1 / RFU, DNAJC13 / Fold change vs veh, DNAJC13 / RFU, GNAQ / Fold change vs veh, GNAQ / RFU, CDK5R1 / Fold change vs veh, CDK5R1 / RFU, ZRANB3 / Fold change vs veh, ZRANB3 / RFU, CUL4A / Fold change vs veh, CUL4A / RFU, CCNY / Fold change vs veh, CCNY / RFU, UFL1 / Fold change vs veh, UFL1 / RFU, COG3 / Fold change vs veh, COG3 / RFU, DIAPH2 / Fold change vs veh, DIAPH2 / RFU, SKA2 / Fold change vs veh, SKA2 / RFU, AFF3 / Fold change vs veh, AFF3 / RFU, LMF1 / Fold change vs veh, LMF1 / RFU, IPO11 / Fold change vs veh, IPO11 / RFU, DFFB / Fold change vs veh, DFFB / RFU, FOXP1 / Fold change vs veh, FOXP1 / RFU, CARD8 / Fold change vs veh, CARD8 / RFU, STRN3 / Fold change vs veh, STRN3 / RFU, ADK / Fold change vs veh, ADK / RFU, RASSF2 / Fold change vs veh, RASSF2 / RFU, WIPF1 / Fold change vs veh, WIPF1 / RFU, LARP1B / Fold change vs veh, LARP1B / RFU, RASA1 / Fold change vs veh, RASA1 / RFU, RB1 / Fold change vs veh, RB1 / RFU, PPFIA1 / Fold change vs veh, PPFIA1 / RFU, MAT2A / Fold change vs veh, MAT2A / RFU, CCT5 / Fold change vs veh, CCT5 / RFU, WDR92 / Fold change vs veh, WDR92 / RFU, CUX1 / Fold change vs veh, CUX1 / RFU, TTC7A / Fold change vs veh, TTC7A / RFU, TMEM135 / Fold change vs veh, TMEM135 / RFU, DEPTOR / Fold change vs veh, DEPTOR / RFU, CPM / Fold change vs veh, CPM / RFU, DNAJB6 / Fold change vs veh, DNAJB6 / RFU, CACNA2D3 / Fold change vs veh, CACNA2D3 / RFU, DTX4 / Fold change vs veh, DTX4 / RFU, TFCP2 / Fold change vs veh, TFCP2 / RFU, GMCL1 /// GMCL1P1 / Fold change vs veh, GMCL1 /// GMCL1P1 / RFU, AEBP2 / Fold change vs veh, AEBP2 / RFU, SNHG1 /// SNORD22 /// SNORD25 /// SNORD26 /// SNORD27 /// SNORD28 /// SNORD29 /// SNORD31 / Fold change vs veh, SNHG1 /// SNORD22 /// SNORD25 /// SNORD26 /// SNORD27 /// SNORD28 /// SNORD29 /// SNORD31 / Fold change (Aza/veh), C12orf56 (ProbeSet 11735607_a_at) / Fold change (ACY-1035/veh), C12orf56 (ProbeSet 11735607_a_at) / Fold change (Aza/veh), FGFR1OP (ProbeSet 11751329_s_at) / Fold change (ACY-1035/veh), FGFR1OP (ProbeSet 11751329_s_at) / Fold change (Aza/veh), VPS36 (ProbeSet 11739960_a_at) / Fold change (ACY-1035/veh), VPS36 (ProbeSet 11739960_a_at) / RFU SYPL1 (11715823_x_at) / Fold change /veh SYPL1 (11715823_x_at) / RFU IGFBP7 (11715501_s_at) / Fold change /veh IGFBP7 (11715501_s_at) / RFU REEP3 (11722064_at) / Fold change /veh REEP3 (11722064_at) / RFU IGLL1 (11728026_x_at) / Fold change /veh IGLL1 (11728026_x_at): dose or concentration left out as unconfirmed
# Details: ProbeSet 11745789_a_at; LIST D
compound,measurement,value
Nc1ncn([C@@H]2O[C@H](CO)[C@@H](O)[C@H]2O)c(=O)n1 [azacitidine],"RFU, TMEM135",108.05 RFU

# Reference: paper PMC5218480 (PLoS ONE, 2017)
